Measurements taken from PMC10584170, “Machine learning-based phenotypic imaging to characterise the targetable biology of Plasmodium falciparum male gametocytes for the development of transmission-blocking antimalarials” (PLOS Pathogens, 2023).
Read-outs that look alike come from different tables or passages of the source.

Legend:
[1] = tested on: P. falciparum male gametocytes; assay: P. falciparum Dual Gamete Formation Assay (PfDGFA), male readout (exflagellation); assay type: cell-based, Plasmodium falciparum NF54; conditions: for inhibition at 2 µM: 24h preincubation with gametocytes
Procedure, shortened: (§1)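 Read-outs are automated image counts of exflagellation centres (brightfield, 10 frames over 1 s) and Pfs25-positive female gametes (Cy3 fluorescence).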

HepG2 cells [2] = assay: HepG2 cytotoxicity counter-screen; conditions: for Mean TOX: mean of the HepG2 TOX50 values; for DGFA Tox50 HepG2: HepG2 value reported with the DGFA screen
[3] = tested on: P. falciparum female gametocytes; assay: P. falciparum Dual Gamete Formation Assay (PfDGFA), female readout (Pfs25-positive female gametes); assay type: cell-based, Plasmodium falciparum NF54; conditions: for inhibition at 2 µM: 24h preincubation with gametocytes
Procedure, shortened: as §1

[4] = tested on: P. falciparum male gametocytes; assay: PhIDDLI timecourse assay, compound added at timepoints after triggering male gametogenesis; assay type: cell-based, Plasmodium falciparum NF54
Protocol: To gain greater understanding of their activity, selected molecules displaying different inhibition phenotypes in the initial screen were re-tested. Rather than subjecting gametocytes to a 24h preincubation prior to inducing gametogenesis, compounds were added at varying timepoints after triggering male gametogenesis. Samples were then fixed 20 min post-induction, imaged and analysed similarly using the PhIDDLI pipeline.
Alternatively, if compound action over time was to be assessed, 1.5ml tubes with appropriate dilutions of test compounds were prepared for each timepoint. Gametogenesis was then triggered in the mature gametocyte culture with ookinete medium and temperature decrease from 37°C. At appropriate times, 200 μl of triggered culture was sampled and mixed with test compound. All samples were then allowed to continue gametogenesis and fixed as described previously with paraformaldehyde after 20 min (when a DMSO-treated sample could be expected to be exflagellating).
100 μl of the fixed cell suspensions were added to wells of a 24 well plate containing 1ml PBS and a poly-l-lysine-coated glass coverslip. Cells were allowed to settle and adhere to the coverslip overnight at 4°C before coverslips were transferred to a hydrophobic membrane (Parafilm) for immunofluorescence staining in a humidified, dark box. Cells were permeabilised with 0.1% Triton-X100 in PBS for 10 min before washing in PBS three times. Non-specific binding was blocked by incubating coverslips with PBS + 10% fetal bovine serum (FBS) (blocking buffer) for 1 h. Gametocytes and microgametes were visualised by labelling with an anti-alpha tubulin antibody (raised from chicken embryo brain tubulin but cross-reacts with many other species) (clone DM1A (Sigma)) 1:500 dilution in blocking buffer for 1 h, washed as before, and then stained with an anti-mouse Alexa488 secondary antibody (Thermo-Fisher) 1:1,000 dilution in blocking buffer for a further 1 h. After a final series of washes, the coverslips were mounted on glass slides with VectaShield mountant (Vector Laboratories) containing 4′,6-diamidino-2-phenylindole (DAPI) to visualise cellular DNA.
All slides were imaged using a Nikon Ti fluorescence microscope using an x100 oil objective and 1.5x zoom. For each sample, tubulin-postive, DAPI-positive stained gametocytes/gametes were imaged at random. Z-stack images with 0.3μm slices were captured for each field of view and images deconvolved and transformed by maximum intensity projection within the Nikon NIS Elements software. Within raw images, cells were initially identified by an automated analysis pipeline developed in ICY Bioimage Analysis based upon the intensity of the tubulin staining captured which assigns a region of interest (ROI) around each cell. All ROIs were reviewed by a trained operator and adjusted if necessary to reflect the true outline of the cell (for example if two cells touching had been allocated the same ROI). Raw images contained between 1 and 8 extractable cells.
Code for the PhIDDLI pipeline was written in Python 3.8 and executed by command line within a 64-bit Ubuntu virtual machine running within Oracle VM VirtualBox 6.1. […] Principle component analysis of compound phenotypes (Fig 5) was performed using ClustViz (https://biit.cs.ut.ee/clustvis/) using ln(x+1) transformation, and k-means clustering of the resultant PCA data was coded in R and executed in R Studio version 1.1.456 to identify optimum cluster using the elbow method.

HepG2 cells [5] = conditions: cited from earlier work
[6] = tested on: P. falciparum gametocytes; assay: P. falciparum Gametocyte Viability ATP Assay (PfGCT); assay type: cell-based, Plasmodium falciparum; conditions: Mean TOX HepG2 over GC-ATP IC50; GREEN = >10-fold; RED = <10-fold
Description: Fig 1 The activity of TCAMS compound identified in the Pf DGFA screen. (A) 85 molecules were confirmed active in the Pf DGFA. 58 were previously identified in one or more transmission-blocking screens. […] No molecule was identified with >4.7-fold greater activity against female gametocytes. Abbreviations (IC50 = concentration giving 50% inhibition, PbODA = P. berghei Ookinete Development Assay, PfDGFA = P. falciparum Dual Gamete Formation Assay, PfFGAA = P. falciparum Female Gametocyte Activation Assay, PfGCT = P. falciparum Gametocyte Viability ATP Assay).

[7] = tested on: P. falciparum gametocytes; design: method as in Almela et al 2015; conditions: ref Almela et al 2015; read-out: Pf Gametocyte viability (ATP) GC-ATP IC50; cited from earlier work
[8] = tested on: P. falciparum female gametocytes; design: method as in Miguel-Blanco et al 2017; conditions: ref Miguel-Blanco et al 2017; read-out: Pf female gametogenesis FGAA IC50; cited from earlier work
[9] = this study, read-out: Pf DGFA IC50 MALE
[10] = this study, read-out: Pf DGFA IC50 FEM

Row | Structure (SMILES) | Cytotox ratio Pf Male [1] | IC50 [1, 9] [nM] | Mean TOX (HepG2 cells [2]) [µM] | Cytotox ratio Pf Female [3] | GC-ATP TOX50 HepG2 (HepG2 cells [5]) [µM] | Cytotox ratio Pf GC-ATP [6] | IC50 [7] [nM] | IC50 [3, 10] [nM] | other results
1 | CNC(=O)c1cnc(Nc2ccc(N3CCN(C)CC3)cc2)nc1Nc1ccccc1OC.O=C(O)C(F)(F)F [TC16] | 29.7 | 1200 | 35.63 | 3.6 | – | – | – | – | cells showing apparent DNA replication ([4]; compound added concurrent with induction, fixed 20 min post-induction, DMSO control 61.4%): 21.7%; effect on exflagellation ([4]; compound added concurrent with triggering male gametogenesis or 2 min later): substantially reduced; amounts of cells showing evidence of DNA replication ([4]; compound added during the first 2 min of male gametogenesis): markedly reduced; effect on exflagellation ([4]; compound added later than 2 min post-induction (up to 10 min)): not inhibitory
2 | Br.c1cc(C2=NC3CCCCC3N2)ccc1OCCCOc1ccc(C2=NC3CCCCC3N2)cc1 (stereo not drawn) [TC17] | 27.3 | 1130 | 30.89 | 3.1 | 25 | 65.7 | 470 | – | –
3 | COCCCNC(=S)NN=C(C)c1ccccn1 [TC19] | 20.8 | 420 | 8.74 | 21.8 | 17 | 54.6 | 160 | 400 | DGFA Tox50 HepG2 (HepG2 cells [2]): 0.48 µM
4 | Nc1cc(C=Cc2ccc([N+](=O)[O-])o2)nc2ccccc12 [TC58] | 44.7 | 160 | 7.15 | 17.9 | 11.7 | 35.7 | 200 | 400 | –
5 | Cc1cccc2nc(-c3ccc(-c4cccc(CNCCN5CCNCC5)c4)cc3)[nH]c12.O=C(O)C(F)(F)F [TC67] | 10.1 | 1870 | 18.84 | 2.1 | 13.4 | 22.4 | 840 | 9110 | –
6 | CN(C)CCCn1c(N)c(-c2nc3ccccc3[nH]2)c2nc(C#N)c(C#N)nc21 [TC72] | 14.8 | 510 | 7.53 | 5.1 | 6.93 | 37.7 | 200 | 1470 | –
7 | CCC1CN2CCc3cc(OC)c(OC)cc3C2CC1CC1NCCc2cc(OC)c(OC)cc21.Cl (stereo not drawn) [TC73] | – | 3530 | 17.84 | – | 17.68 | – | 120 | 750 | FGAA TOX50 HepG2 (HepG2 cells [5]): 2.24 µM; ODA TOX50 HepG2 (HepG2 cells [5]): 23.9883 µM; IC50 [8]: 1820 nM
8 | Cc1cc(Nc2ccncc2)n2nc(C)c(-c3ccc(Cl)cc3)c2n1 [TC79] | 60.8 | 950 | 57.77 | 5.8 | 50 | 63.5 | 910 | – | –
9 | Nc1cc(C=Cc2ccc([N+](=O)[O-])s2)nc2ccccc12 [TC80] | 14.2 | 330 | 4.68 | 4.5 | 7.6 | 7.8 | 600 | 1030 | –
10 | O=C(C1CC1)N1c2ccccc2CCc2ccccc21 [TCMDC-123880] | – | – | 100.00 | – | – | – | – | – | Selectivity Ratio M ([1]; HepG2 Tox50 versus male IC50): 180.08; Cytotox ratio Pf Male ([1]; Mean TOX HepG2 over DGFA IC50 MALE, GREEN = >10-fold, RED = <10-fold): 178.6; inhibition at 2 µM ([1]; Plasmodium falciparum, average of replicates, read-out: Average inhibition male (%)): 95.8%; inhibition at 2 µM ([1]; Plasmodium falciparum, replicate R1, read-out: % inhibition male (individual replicates) R1): 98.9%; inhibition at 2 µM ([1]; Plasmodium falciparum, replicate R2, read-out: % inhibition male (individual replicates) R2): 92.4%; inhibition at 2 µM ([1]; Plasmodium falciparum, replicate R3, read-out: % inhibition male (individual replicates) R3): 99.8%; inhibition at 2 µM ([1]; Plasmodium falciparum, replicate R4, read-out: % inhibition male (individual replicates) R4): 92.2%; IC50 ([1]; Plasmodium falciparum, PfDGFA, 24 h incubation with gametocytes before induction, exflagellation readout, read-out: Male IC50): 560 nM; DGFA Tox50 HepG2 (HepG2 cells [2]): 100 µM; Selectivity ratio F ([3]; HepG2 Tox50 versus female IC50): 10; Cytotox ratio Pf Female ([3]; Mean TOX HepG2 over DGFA IC50 FEM, GREEN = >10-fold, RED = <10-fold): 10.0; inhibition at 2 µM ([3]; Plasmodium falciparum, average of replicates, read-out: Average inhibition female (%)): 7.7%; inhibition at 2 µM ([3]; Plasmodium falciparum, replicate R1, read-out: % inhibition female (individual replicates) R1): 12.4%; inhibition at 2 µM ([3]; Plasmodium falciparum, replicate R2, read-out: % inhibition female (individual replicates) R2): -4.3%; inhibition at 2 µM ([3]; Plasmodium falciparum, replicate R3, read-out: % inhibition female (individual replicates) R3): 22.7%; inhibition at 2 µM ([3]; Plasmodium falciparum, replicate R4, read-out: % inhibition female (individual replicates) R4): 0.07%; IC50 ([3]; Plasmodium falciparum, PfDGFA, 24 h incubation with gametocytes before induction, female gamete readout, read-out: Female IC50): > 10000 nM; effect on exflagellation ([4]; compound added between 0 and 5 min post induction): strongly inhibited exflagellation
